We go through 7 compounds from patent US9072703B2 (Ipsen Pharma S.A.S., priority 2008, dated 2015).

Data set [1] can be described thus: Human plasma half-life assay. It is filed as in vitro ADME. Particulars: 37° C., LC-MS, read-out: Human Plasma T½ (converted). Here is the method:
(§1) B. Human and Rat Plasma Half-Life Assay
(§2) 50 μL was removed at various times, like at 0, 1, 2, 3, 4, 8, 24, 32, 48, 56, 72 hours, mixed with 5 μL formic acid and 150 μL acetonitrile in a microcentrifuge tube, vertexed, and centrifuged for 10 minutes at 10K rpm. The supernatant was transferred to an injection vial and analyzed by LC-MS. The LC-MS system consisted of an API4000 mass spectrometer with an ESI probe. Positive ion mode and full scan detection were used. HPLC separation was carried out on a Luna 3μ C8 (2), 2×30 mm column with a gradient from 90% A to 90% B in 10 minutes at a flow rate of 0.3 ml/min. Buffer A was 1% formic acid in water and buffer B was 1% formic acid acetonitrile.

Data set [2] in a line: Rat plasma half-life assay. It is filed as in vitro ADME. Particulars: 37° C., LC-MS, read-out: Rat Plasma T½ (converted). As to the method:
as §1, §2

Each structure is given as a SMILES string. Non-standard residues stand in square brackets, D forms with d. Residues, ends and D or L forms follow the SMILES beside them. Ac5c = NC1(C(=O)O)CCCC1

For `CCCC[C@H](NC(=O)[C@H](C)NC(=O)[C@@H](NC(=O)C1(NC(=O)[C@H](Cc2ccc(O)cc2)NC(=O)[C@H](CC(=O)O)NC(=O)[C@H](CO)NC(=O)[C@@H](NC(=O)[C@H](Cc2ccccc2)NC(=O)[C@@H](NC(=O)CNC(=O)[C@H](CCC(=O)O)NC(=O)[C@H](C)NC(=O)[C@@H](N)Cc2ccc(O)cc2)[C@@H](C)O)[C@@H](C)CC)CCCC1)[C@@H](C)CC)C(=O)N[C@@H](CC(=O)O)C(=O)N[C@@H](CCCCN)C(=O)N[C@H](C(=O)N[C@@H](Cc1c[nH]cn1)C(=O)N[C@@H](CCC(N)=O)C(=O)N[C@@H](CCC(N)=O)C(=O)N[C@@H](CC(=O)O)C(=O)N[C@@H](Cc1ccccc1)C(=O)N[C@H](C(=O)N[C@@H](CC(N)=O)C(=O)N[C@@H](Cc1c[nH]c2ccccc12)C(=O)N[C@@H](CC(C)C)C(=O)N[C@@H](CC(C)C)C(=O)N[C@@H](C)C(=O)N[C@@H](CCC(N)=O)C(=O)N[C@@H](CCCCN)C(=O)NCC(=O)N[C@@H](CCCCN)C(=O)N[C@@H](CCCCN)C(=O)N[C@@H](CC(N)=O)C(=O)N[C@@H](CC(=O)O)C(=O)N[C@@H](Cc1c[nH]c2ccccc12)C(=O)N[C@@H](CCCCN)C(=O)N[C@@H](Cc1c[nH]cn1)C(=O)N[C@@H](CC(N)=O)C(=O)N[C@H](C(=O)N[C@H](C(=O)N[C@@H](CCC(N)=O)C(=O)N[C@@H](Cc1c[nH]cn1)C(=O)O)[C@@H](C)O)[C@@H](C)CC)C(C)C)[C@@H](C)CC` [Example 21, (A5c^11, Nle^14, His^43)hGIP(1-43)-OH], the half-life at 0.1 mg/ml in data set [1] was 11.1 h; in data set [2] it was 2.8 h.

In the case of `CC[C@H](C)[C@H](NC(=O)[C@H](CCCCN)NC(=O)[C@H](CC(=O)O)NC(=O)[C@H](CCSC)NC(=O)[C@H](C)NC(=O)[C@@H](NC(=O)C1(NC(=O)[C@H](Cc2ccc(O)cc2)NC(=O)[C@H](CC(=O)O)NC(=O)[C@H](CO)NC(=O)[C@@H](NC(=O)[C@H](Cc2ccccc2)NC(=O)[C@@H](NC(=O)CNC(=O)[C@H](CCC(=O)O)NC(=O)[C@H](C)NC(=O)[C@@H](N)Cc2ccc(O)cc2)[C@@H](C)O)[C@@H](C)CC)CCCC1)[C@@H](C)CC)C(=O)N[C@@H](Cc1c[nH]cn1)C(=O)N[C@@H](CCC(N)=O)C(=O)N[C@@H](CCC(N)=O)C(=O)N[C@@H](CC(=O)O)C(=O)N[C@@H](Cc1ccccc1)C(=O)N[C@H](C(=O)N[C@@H](CC(N)=O)C(=O)N[C@@H](Cc1c[nH]c2ccccc12)C(=O)N[C@@H](CC(C)C)C(=O)N[C@@H](CC(C)C)C(=O)N[C@@H](C)C(=O)N[C@@H](CCC(N)=O)C(=O)N[C@@H](CCCCN)C(N)=O)C(C)C` [Example 28, (A5c^11)hGIP(1-30)-NH2] (H-YAEGTFISDY[Ac5c]IAMDKIHQQDFVNWLLAQK-NH2; N-terminus assumed), the half-life at 0.1 mg/ml in data set [1] is 6.6 h; in data set [2], 2.4 h.

Take `CC[C@H](C)[C@H](NC(=O)[C@H](CCCCN)NC(=O)[C@H](CC(=O)O)NC(=O)[C@H](CCSC)NC(=O)[C@H](C)NC(=O)[C@@H](NC(=O)C1(NC(=O)[C@H](Cc2ccc(O)cc2)NC(=O)[C@H](CC(=O)O)NC(=O)[C@H](CO)NC(=O)[C@@H](NC(=O)[C@H](Cc2ccccc2)NC(=O)[C@@H](NC(=O)CNC(=O)[C@H](CCC(=O)O)NC(=O)[C@H](C)NC(=O)[C@@H](N)Cc2ccc(O)cc2)[C@@H](C)O)[C@@H](C)CC)CCCC1)[C@@H](C)CC)C(=O)N[C@@H](Cc1c[nH]cn1)C(=O)N[C@@H](CCC(N)=O)C(=O)N[C@@H](CCC(N)=O)C(=O)N[C@@H](CC(=O)O)C(=O)N[C@@H](Cc1ccccc1)C(=O)N[C@H](C(=O)N[C@@H](CC(N)=O)C(=O)N[C@@H](Cc1c[nH]c2ccccc12)C(=O)N[C@@H](CC(C)C)C(=O)N[C@@H](CC(C)C)C(=O)N[C@@H](C)C(=O)N[C@@H](CCC(N)=O)C(=O)N[C@@H](CCCCN)C(=O)N[C@@H](Cc1c[nH]cn1)C(N)=O)C(C)C` [Example 29, (A5c^11, His^31)hGIP(1-31)-NH2] (H-YAEGTFISDY[Ac5c]IAMDKIHQQDFVNWLLAQKH-NH2; N-terminus assumed): the half-life at 0.1 mg/ml is 7.2 h in data set [1] and 7.5 h in data set [2].

With `CC[C@H](C)[C@H](NC(=O)[C@H](CCCCN)NC(=O)[C@H](CC(=O)O)NC(=O)C1(NC(=O)[C@H](C)NC(=O)[C@@H](NC(=O)C2(NC(=O)[C@H](Cc3ccc(O)cc3)NC(=O)[C@H](CC(=O)O)NC(=O)[C@H](CO)NC(=O)[C@@H](NC(=O)[C@H](Cc3ccccc3)NC(=O)[C@@H](NC(=O)CNC(=O)[C@H](CCC(=O)O)NC(=O)[C@H](C)NC(=O)[C@@H](N)Cc3ccc(O)cc3)[C@@H](C)O)[C@@H](C)CC)CCCC2)[C@@H](C)CC)CCCC1)C(=O)N[C@@H](Cc1c[nH]cn1)C(=O)N[C@@H](CCC(N)=O)C(=O)N[C@@H](CCC(N)=O)C(=O)N[C@@H](CC(=O)O)C(=O)N[C@@H](Cc1ccccc1)C(=O)N[C@H](C(=O)N[C@@H](CC(N)=O)C(=O)N[C@@H](Cc1c[nH]c2ccccc12)C(=O)N[C@@H](CC(C)C)C(=O)N[C@@H](CC(C)C)C(=O)N[C@@H](C)C(=O)N[C@@H](CCC(N)=O)C(=O)N[C@@H](CCCCN)C(N)=O)C(C)C` [Example 30, (A5c^11, 14)hGIP(1-30)-NH2] (H-YAEGTFISDY[Ac5c]IA[Ac5c]DKIHQQDFVNWLLAQK-NH2; N-terminus assumed), the half-life at 0.1 mg/ml was 6.2 h in data set [1] and 13.6 h in data set [2].

With `CC[C@H](C)[C@H](NC(=O)[C@H](CCCCN)NC(=O)[C@H](CC(=O)O)NC(=O)[C@H](CCSC)NC(=O)[C@H](C)NC(=O)[C@@H](NC(=O)C1(NC(=O)[C@H](Cc2ccc(O)cc2)NC(=O)[C@H](CC(=O)O)NC(=O)[C@H](CO)NC(=O)[C@@H](NC(=O)[C@H](Cc2ccccc2)NC(=O)[C@@H](NC(=O)CNC(=O)[C@H](CCC(=O)O)NC(=O)[C@H](C)NC(=O)[C@@H](N)Cc2ccc(O)cc2)[C@@H](C)O)[C@@H](C)CC)CCCC1)[C@@H](C)CC)C(=O)N[C@@H](Cc1c[nH]cn1)C(=O)N[C@@H](CCC(N)=O)C(=O)N[C@@H](CCC(N)=O)C(=O)N[C@@H](CC(=O)O)C(=O)N[C@@H](Cc1ccccc1)C(=O)N[C@H](C(=O)N[C@@H](CC(N)=O)C(=O)N[C@@H](Cc1c[nH]c2ccccc12)C(=O)N[C@@H](CC(C)C)C(=O)N[C@@H](CC(C)C)C(=O)N[C@@H](C)C(=O)N[C@@H](CCC(N)=O)C(=O)N[C@@H](CCCCN)C(=O)NCC(=O)N[C@@H](CCCCN)C(=O)N[C@@H](CS)C(=O)N[C@@H](CC(N)=O)C(=O)N[C@@H](CC(=O)O)C(=O)N[C@@H](Cc1c[nH]c2ccccc12)C(=O)N[C@@H](CCCCN)C(=O)N[C@@H](Cc1c[nH]cn1)C(=O)N[C@@H](CC(N)=O)C(=O)N[C@H](C(=O)NC1(C(=O)N[C@@H](CCC(N)=O)C(N)=O)CCCC1)[C@@H](C)CC)C(C)C` [Example 32, (A5c^11, 41, Cys^33)hGIP(1-42)-NH2], the half-life at 0.1 mg/ml in data set [1] was 11.5 h; in data set [2], 8.8 h.

Take `CCCCCCCCCCCC(=O)NCCC[C@H](NC(=O)CNC(=O)[C@H](CCCCN)NC(=O)[C@H](CCC(N)=O)NC(=O)[C@H](C)NC(=O)[C@H](CC(C)C)NC(=O)[C@H](CC(C)C)NC(=O)[C@H](Cc1c[nH]c2ccccc12)NC(=O)[C@H](CC(N)=O)NC(=O)[C@@H](NC(=O)[C@H](Cc1ccccc1)NC(=O)[C@H](CC(=O)O)NC(=O)[C@H](CCC(N)=O)NC(=O)[C@H](CCC(N)=O)NC(=O)[C@H](Cc1c[nH]cn1)NC(=O)[C@@H](NC(=O)[C@H](CCCCN)NC(=O)[C@H](CC(=O)O)NC(=O)[C@H](CCSC)NC(=O)[C@H](C)NC(=O)[C@@H](NC(=O)C1(NC(=O)[C@H](Cc2ccc(O)cc2)NC(=O)[C@H](CC(=O)O)NC(=O)[C@H](CO)NC(=O)[C@@H](NC(=O)[C@H](Cc2ccccc2)NC(=O)[C@@H](NC(=O)CNC(=O)[C@H](CCC(=O)O)NC(=O)[C@H](C)NC(=O)[C@@H](N)Cc2ccc(O)cc2)[C@@H](C)O)[C@@H](C)CC)CCCC1)[C@@H](C)CC)[C@@H](C)CC)C(C)C)C(=O)N[C@@H](CCCCN)C(=O)N[C@@H](CC(N)=O)C(=O)N[C@@H](CC(=O)O)C(=O)N[C@@H](Cc1c[nH]c2ccccc12)C(=O)N[C@@H](CCCCN)C(=O)N[C@@H](Cc1c[nH]cn1)C(=O)N[C@@H](CC(N)=O)C(=O)N[C@H](C(=O)N[C@H](C(=O)N[C@@H](CCC(N)=O)C(=O)N[C@@H](Cc1c[nH]cn1)C(=O)O)[C@@H](C)O)[C@@H](C)CC` [Example 34, [A5c^11, Orn^32(N—C(O)—(CH2)10—CH3), His^43]hGIP(1-43)-OH]: the figures for the half-life at 0.1 mg/ml in data set [1] and in data set [2] were 7.5 h and 20.1 h, respectively.

In the case of `CCCCCCCCCCCC(=O)NCCC[C@H](NC(=O)[C@H](CCCCN)NC(=O)CNC(=O)[C@H](CCCCN)NC(=O)[C@H](CCC(N)=O)NC(=O)[C@H](C)NC(=O)[C@H](CC(C)C)NC(=O)[C@H](CC(C)C)NC(=O)[C@H](Cc1c[nH]c2ccccc12)NC(=O)[C@H](CC(N)=O)NC(=O)[C@@H](NC(=O)[C@H](Cc1ccccc1)NC(=O)[C@H](CC(=O)O)NC(=O)[C@H](CCC(N)=O)NC(=O)[C@H](CCC(N)=O)NC(=O)[C@H](Cc1c[nH]cn1)NC(=O)[C@@H](NC(=O)[C@H](CCCCN)NC(=O)[C@H](CC(=O)O)NC(=O)[C@H](CCSC)NC(=O)[C@H](C)NC(=O)[C@@H](NC(=O)C1(NC(=O)[C@H](Cc2ccc(O)cc2)NC(=O)[C@H](CC(=O)O)NC(=O)[C@H](CO)NC(=O)[C@@H](NC(=O)[C@H](Cc2ccccc2)NC(=O)[C@@H](NC(=O)CNC(=O)[C@H](CCC(=O)O)NC(=O)[C@H](C)NC(=O)[C@@H](N)Cc2ccc(O)cc2)[C@@H](C)O)[C@@H](C)CC)CCCC1)[C@@H](C)CC)[C@@H](C)CC)C(C)C)C(=O)N[C@@H](CC(N)=O)C(=O)N[C@@H](CC(=O)O)C(=O)N[C@@H](Cc1c[nH]c2ccccc12)C(=O)N[C@@H](CCCCN)C(=O)N[C@@H](Cc1c[nH]cn1)C(=O)N[C@@H](CC(N)=O)C(=O)N[C@H](C(=O)N[C@H](C(=O)N[C@@H](CCC(N)=O)C(=O)N[C@@H](Cc1c[nH]cn1)C(=O)O)[C@@H](C)O)[C@@H](C)CC` [Example 35, [A5c^11, Orn^33(N—C(O)—(CH2)10—CH3), His^43]hGIP(1-43)-OH], the half-life at 0.1 mg/ml in data set [1] was 9.5 h; in data set [2], 17 h.
